Where two headings read alike, the source gives them in different places.
Assays:
[1] = test system: Methicillin-resistant Staphylococcus aureus; conditions: for LOG10 Reduction: 0.005% PHMB vs no PHMB; for LOG10 Reduction / Total CFU Recovered MRSA: 10-minute contact time; for Total CFU Recovered MRSA: 0.005% PHMB, 5% bovine serum albumin soil, n = 2
Procedure: This Example utilized 1.5-milliliter tubes containing a 1-milliliter blend of phosphate-buffered saline (pH 7.2) and 5% (w/v) bovine serum albumin soil. The tubes were placed in electric heat blocks set for 22° C., 30° C., 40° C. and 50° C., respectively. The tubes remained in the electric heat blocks for approximately 10 minutes.
After 10 minutes, 0.005% (by weight) active polyhexamehtylene biguanide (PHMB) (commercially available as Cosmocil® CQ from Arch Biocides, Inc., United Kingdom) was added to two tubes at each temperature level. Duplicate tubes without PHMB at each temperature were also made.
The tubes were then vortexed and Methicillin-resistant Staphylococcus aureus (approximately 1×10^5 colony forming units (CFU)) was then added to each tube. All of the tubes were then placed back into the heat blocks at their respective temperatures.
Following a 10-minute contact time, 0.1 milliliters of each sample was transferred to 0.9 milliliters letheen broth to neutralize the PHMB activity. The letheen samples were then plated in duplicate on Tryptic Soy agar plates using a WASP2 spiral plater (commercially available from Don Whitley Scientific, Ltd., Yorkshire, United Kingdom). The plates were inverted and incubated at 37±2° C. for 48 hours.
After 48 hours, the plates were evaluated using a total plate count to determine the biocidal efficacy of each sample.

[2] = test system: Staphylococcus aureus; test: Biocidal efficacy of magnesium chloride in combination with PHMB, total plate count; type: cell-based; conditions: 15-minute contact time
Procedure: A 1.5-milliliter tube was prepared using magnesium chloride in water.
Two control samples were also prepared. One control sample was filled with 0.850 milliliters magnesium chloride. A second control sample was prepared by introducing 0.850 milliliters sterile water.
The tubes were then vortexed until an increase in temperature was observed.
0.05 milliliters of 1×10^7 CFU/milliliter culture of Staphylococcus aureus was added to each tube. After a 15-minute contact time, 0.1 milliliters of each tube was transferred into 0.9 milliliters letheen broth. To the broth, 10 milligrams/milliliter sodium thiosulfate was also added. The tubes were again vortexed. After vortexing, 0.1 milliliters of each tube was plated on Tryptic soy agar plates. The plates were inverted and incubated at 37° C. for 24 hours. An inoculum control plate was also plated to determine the concentration of the inoculum
After 24 hours, the plates were evaluated using a total plate count to determine the biocidal efficacy of each sample.

[3] = particle size 149-355 micrometers, compared with four other size ranges; 35 wt % in mineral oil added to 7.0 grams de-ionized water; FIG. 3
Procedure: In this example, samples incorporating various size ranges of anhydrous calcium chloride suspended in mineral oil at 35 wt % were evaluated for their ability to generate heat upon introduction into water.
The five size ranges of anhydrous calcium chloride evaluated were: (1) less than 149 microns; (2) 149-355 microns; (3) 710-1190 microns; (4) 1190-2000 microns; and (5) 2000-4000 microns. The samples of anhydrous calcium chloride (Dow Chemical, Midland, Mich.) were dispersed in mineral oil (available as Drakeol 7 LT NF from Penreco, Dickinson, Tex.). The as received anhydrous calcium chloride were screened dry using a Gilson Sonic Sieve (Gilson Company, Inc. Columbus, Ohio) to create two sizes, a 1190-2000 micron size and a 2000-4000 micron size. These powders were then suspended at 35 wt % in mineral oil to form a slurry using a cowles mixing blade. To achieve the smaller size distributions, the anhydrous calcium chloride powder required further processing. […]
All five samples were then individually added to 7.0 grams de-ionized water and the resulting temperature rise was measured using a Barnant Scanning Thermocouple (available from Therm-X of California, Hayward, Calif.).

[4] = particle size less than 250 micrometers, compared with three other size ranges; 35 wt % in mineral oil added to 7.0 grams de-ionized water; FIG. 4
Procedure: In this example, samples incorporating various size ranges of anhydrous magnesium chloride suspended in mineral oil at 35 wt % were evaluated for their ability to generate heat upon introduction into water.
The four size ranges of anhydrous magnesium chloride evaluated were: (1) 1000-1500 microns; (2) 600-1000 microns; (3) 250-600 microns; and (4) less than 250 microns. To produce the samples of anhydrous magnesium chloride in mineral oil, the various size ranges of anhydrous magnesium chloride powder (Magnesium Interface Inc. (Vancouver, B.C., Canada) were suspended at 35 wt % in mineral oil (available as Drakeol 7 LT NF from Penreco, Dickinson, Tex.). To produce the samples having anhydrous magnesium chloride with size ranges of 1000-1500 microns, 600-1000 microns, and 250-600 microns, the as received anhydrous magnesium chloride powder was hand screened into the size ranges desired and the powders collected. These powders were suspended at 35 wt % in mineral oil using a cowles mixing blade. […]
All four samples were then added to 7.0 grams de-ionized water and the resulting temperature rise was measured using a J type Thermocouple (available from Omega Engineering, Inc., Stamford, Conn.).

[5] = Heat generation after soaking in de-ionized water; type: physicochemical; conditions: 0.73 grams added to 7.0 grams de-ionized water, no protective layer; FIG. 6
Procedure: Four samples of the calcium chloride particles including a moisture protective layer were then analyzed for their ability to generate heat after exposure to water. A control sample (calcium chloride) was also tested for heat generating capabilities and compared to the four samples of calcium chloride having a moisture protective layer.
To analyze the samples for heat generation, 0.80 grams of each sample of calcium chloride including a moisture protective layer was added to four separate vials each containing 7.0 grams of de-ionized water and 0.73 grams of the control sample was added to a fifth vial containing 7.0 grams of de-ionized water. Using a J type thermocouple (commercially available from Omega Engineering, Inc., Stamford, Conn.) and a data logger, the temperature of the samples was measured over a period of 180 seconds. The four vials containing the samples of microencapsulated heat delivery vehicle including a moisture protective layer were allowed to remain in the de-ionized water for 0.5 hours, 1.0 hour, 1.5 hours, and 2.0 hours, respectively, at which time the samples were activated by crushing the samples by hand using a metal rod. The temperature of the water in the four vials was measured for a period of 180 seconds after crushing the samples.

Question: For polyhexamethylene biguanide [PHMB], which “difference in efficacy between 22° C. and 50° C.” value ([1]; 0.005% (by weight) active PHMB) is on record?
Answer: Its value is “greater than 1.4 LOG10”.

Question: What about the “LOG10 Reduction” value ([1]; 22° C.) of the same compound?
Answer: The value was 2.1 LOG10.

Question: What about the “Total CFU Recovered MRSA” value ([1]; 22° C.) of the same compound?
Answer: The value was 3.5 CFU.

Question: And the “LOG10 Reduction” value ([1]; 30° C.)?
Answer: The value was 2.8 LOG10.

Question: What about the “Total CFU Recovered MRSA” value ([1]; 30° C.) of the same compound?
Answer: The value was 2.9 CFU.

Question: And the “LOG10 Reduction” value ([1]; 40° C.)?
Answer: The value was 3.5 LOG10.

Question: What about the “Total CFU Recovered MRSA” value ([1]; 40° C.) of the same compound?
Answer: The value was 2.1 CFU.

Question: And the “LOG10 Reduction” value ([1]; 50° C.)?
Answer: Its value is over 3.5 LOG10.

Question: And the “Total CFU Recovered MRSA” value ([1]; 50° C.)?
Answer: Its value is under 2 CFU.

Question: What about the LOG10 recovered ([2]; PHMB 0.00025%, magnesium chloride 0%) of the same compound?
Answer: Its LOG10 recovered is 4.8 LOG10.

Question: For `[Ca+2].[Cl-].[Cl-]` [anhydrous calcium chloride, calcium chloride], which “rate of heat generation” value [3] is on record?
Answer: The value was “highest rate”.

Question: Which results are given for `[Cl-].[Cl-].[Mg+2]` [Magnesium Chloride, magnesium chloride]?
Answer: rate of heat generation [4]: highest rate; LOG10 recovered ([2]; PHMB 0%, magnesium chloride 50%): 1.9 LOG10

Question: For `[Ca+2].[Cl-].[Cl-]` [Example 11 control sample, calcium chloride], which “heat production in water” value [5] is on record?
Answer: Its value is “produced heat immediately upon being introduced into water but only for a short period of time”.

— patent publication US20070145619A1, “Processes for producing microencapsulated delivery vehicles” (Kimberly-Clark Worldwide, Inc., priority 2005, published 2007)
